Common to all, as to format: cell-based, human
Assay [1] concerns HepG2 ATP7B^−/− cells. Nature of the assay: Autophagosome-lysosome fusion, tandem sensor RFP-GFP-LC3B, HepG2 ATP7B-/-. The conditions noted are these: 24 h, 800 µM, 30–50 cells per condition. As to the method:
(§1) For the detection of the effect of copper on autophagosome-lysosome fusion, 50,000 cells of each HepG2 WT and HepG2 ATP7B^−/− were grown on laminin-coated coverslips for 24 h, transduced with BacMam-GFP-RFP-LC3B overnight according to the manufacturer’s recommendations. The cells were then treated with CuSO4 at a concentration range from 100 µM to 800 µM for 24 h, fixed with 4% paraformaldehyde for 15 min and finally stained with 250 ng/mL DAPI (Thermo Fisher scientific, Molecular Probes, D1306) for 5 min. The coverslips were fixed on a glass slide using Mowiol 4–88 (Sigma Aldrich, 81381). The fluorescence cell imaging was acquired using a confocal Zeiss LSM 780 microscope with a 63 × 1.40 Oil DIC M27. […] Red and yellow puncta count per cell was done using the particle analysis in image J. For protein ATP7B trafficking analysis, 50,000 cells of HepG2 WT and HepG2 ATP7B^−/− were cultured in a 500 µL cell culture medium on a laminin-coated coverslip for 24 h, then transfected with EGFP-ATP7B. After 6 h post transfection, cells were transduced with BacMam-RFP-Golgi or the BacMam-RFP-Lysosome overnight, then treated with various concentrations of CuSO4 or 200 µM of bathocuproine disulfonate (BCS) for 24 h or EBSS for 2 h, respectively. […] Pearson’s correlation coefficient was analyzed per cell using the colocalization threshold of ImageJ Fiji.

Assay [2] deals with HepG2 ATP7B^−/− cells. Kind of assay: Autophagy detection by western blot (LC3B-II/LC3B-I), HepG2 ATP7B-/-. The conditions noted are these: 24 h, even at 600 µM and 800 µM. As to the method: (§2) 5 × 10^5 HepG2 cells were cultured in 2 mL of DMEM medium supplemented with 10% FBS and 1% P/S. Once the cell reached 80% confluence, they were treated with varied concentration of CuSO4 (Sigma Aldrich, 209198) from 200 µM to 800 µM for 24 h. For the starvation induction, cells were additionally treated with Earle’s Balanced Salt Solution (EBSS) media (Sigma Aldrich, E3024) for 2 h with or without 50 µM chloroquine (CLQ) prior to lysis with RIPA buffer containing inhibitor cocktails (Roche Life Science, 11697498001). Protein concentration was determined to be sure that the protein of each sample was equally loaded on the Criterion TGX precast gel for western blot detection. ATP7B, GAPDH and LC3B-II/LC3B-I was determined using the above-mentioned antibodies. Western Blot analysis was carried out as described above.
A general note: A western blot detects proteins with antibodies after separation by electrophoresis.

Assay [3] deals with HepG2 WT cells. Nature of the assay: Autophagy detection by western blot (LC3B-II/LC3B-I), HepG2 WT. The conditions noted are these: 24 h treatment, 100–800 µM, effect at 600 µM and 800 µM. As to the method:
as §2

Assay [4] concerns HepG2 WT cells. Kind of assay: Autophagosome-lysosome fusion, tandem sensor RFP-GFP-LC3B, HepG2 WT. The conditions noted are these: 24 h, high CuSO4 concentration, significance reached at 800 µM, 30–50 cells per condition. Here is the method:
as §1

In assay [5] the test system is HepG2 WT cells. Nature of the assay: Colocalization of EGFP-ATP7B-WT with TGN, lysosome (LAMP1) and LC3B markers. As to the method:
For the detection of the effect of copper on autophagosome-lysosome fusion, 50,000 cells of each HepG2 WT and HepG2 ATP7B^−/− were grown on laminin-coated coverslips for 24 h, transduced with BacMam-GFP-RFP-LC3B overnight according to the manufacturer’s recommendations. The cells were then treated with CuSO4 at a concentration range from 100 µM to 800 µM for 24 h, fixed with 4% paraformaldehyde for 15 min and finally stained with 250 ng/mL DAPI (Thermo Fisher scientific, Molecular Probes, D1306) for 5 min. The coverslips were fixed on a glass slide using Mowiol 4–88 (Sigma Aldrich, 81381). The fluorescence cell imaging was acquired using a confocal Zeiss LSM 780 microscope with a 63 × 1.40 Oil DIC M27. […] Red and yellow puncta count per cell was done using the particle analysis in image J. For protein ATP7B trafficking analysis, 50,000 cells of HepG2 WT and HepG2 ATP7B^−/− were cultured in a 500 µL cell culture medium on a laminin-coated coverslip for 24 h, then transfected with EGFP-ATP7B. After 6 h post transfection, cells were transduced with BacMam-RFP-Golgi or the BacMam-RFP-Lysosome overnight, then treated with various concentrations of CuSO4 or 200 µM of bathocuproine disulfonate (BCS) for 24 h or EBSS for 2 h, respectively. To detect LC3B or endogenous ATP7B, the fixed cells were incubated with anti-LC3B or anti-ATP7B antibodies at 4 °C overnight followed by secondary antibody incubation, Alexa Fluor 568 goat anti-rabbit, at temperature for 1 h in the dark. Pearson’s correlation coefficient was analyzed per cell using the colocalization threshold of ImageJ Fiji.

As for `O=S(=O)([O-])[O-].[Cu+2]` [CuSO4], in assay [1], the “red/yellow puncta ratio (autophagosome-lysosome fusion)” value is given as “significantly decreased”. For the same compound, in assay [2], the “LC3B-II/LC3B-I ratio (western blot)” value is listed as “did not significantly alter”. For the same compound, the “LC3B-II level (western blot)” value in assay [3] is listed as “significant increase of LC3B-II”. Moreover, in assay [4], the “red/yellow puncta ratio (autophagosome-lysosome fusion)” value is “increased red/yellow puncta ratio”. Also, in assay [5] (400 µM CuSO4, 24 h), the “TGN fraction of EGFP-ATP7B” value is reported as “no TGN fraction was detectable” and the “fold increase of EGFP-ATP7B colocalization with lysosomal structures vs basal medium condition” value is listed as “about 1.2 fold”. For the same compound, the “colocalization of EGFP-ATP7B with lysosomal structures (LAMP1)” value in assay [5] (400 µM CuSO4, 24 h, percentage from mean Pearson's correlation coefficient, 30 cells) came out at 83.6%. The “fold elevation of EGFP-ATP7B colocalization with LC3B vs basal copper concentration” value in assay [5] (high CuSO4 concentration (400 µM), 24 h) came to 4.8 fold. Also, in assay [5] (high CuSO4 concentration (400 µM), 24 h, from mean Pearson's correlation coefficient, 30 cells), the “colocalization of EGFP-ATP7B with LC3B” value came to 11.6%.

These data come from paper PMC8625360 (Cells, 2021).
